System: retinal ganglion cells (RGCs)
Assay type: in vivo, rat

Question: What does the source list for `C[C@@H](N)C1CCN(S(=O)(=O)c2cccc3cnccc23)CC1` [BA-1049]?
Answer: neuroprotection of RGCs (highest dose tested (10 uM and 100 uM BA-1049 tested)): modest neuroprotection; effect on RGC survival (FIG. 5) (very high concentration (1 mM)): detectable effect

Question: Which “neuroprotective effect on RGCs” value (100 uM and 1 mM Y-27632, one week after optic nerve injury) does the source give for `C[C@@H](N)[C@H]1CC[C@H](C(=O)Nc2ccncc2)CC1` [Y-27632] here?
Answer: The value was “No neuroprotective effect”.

Question: And the “rescue of neurons from trauma-induced cell death (Example 8, summary)” value (rat, in vivo)?
Answer: The value was “not able to rescue neurons from trauma-induced cell death”.

Question: For C3-transferase, which “RGCs protected after axotomy” value (rat, in vivo) is on record?
Answer: The value was 80%.
